From patent publication US20060019922A1, “Selective killing of cancerous cells” (The University of North Carolina, priority 2004, published 2006) come the findings set out here.

For one assay, the system named is Saos-2/p53- cells. Nature of the assay: Colony-formation assay with GCV in Saos-2/p53-negative cells. Format: cell-based, human. The text has this: (§1) FIGS. 9A and 9B depict regulation of the response to GCV by K2-5F induced by endogenous p53. Saos-2/p53-negative (FIG. 9A) and Saos-2/p53-positive (FIG. 9B) cells were co-transfected with plasmid pRL-2MDR-TKp-TK without (black bars) or with (gray bars) co-transfection of pFR-2p21-K2-5F. White bars represent cells transfected with empty vectors. All cells were also transfected with a β-galactosidase-expressing plasmid. After twenty-four hours, 600 cells were re-plated in 10-cm plates, and after another twenty-four hours, GCV was administered in varying concentrations. After ten days, surviving blue colonies larger than 50 cells were counted. Survival was expressed as a percentage of colonies formed at 0 GCV. […] The x-axis indicates the concentration of GCV in micromoles. The y-axis indicates the percentage of cell survival compared with cells not treated with GCV.
(§2) Cells were transfected with the plasmids indicated, along with a β-galactosidase-expressing plasmid to mark the transfected cells. […] After 10 days, surviving blue (β-galactosidase-positive) colonies larger than 50 cells were counted. Survival was expressed as a percentage of colonies formed at 0 GCV.
(§3) The pharmacological effect of K2-5F induced by endogenous p53 in stably transfected Saos-2 cells was investigated. […] The cells were then treated with GCV, and cell viability was evaluated with the use of a colony-formation assay. […]

For a further assay, the system named is HEK 293 cells. Nature of the assay: GCV sensitivity assay (luciferase) in transfected HEK 293 cells. The note with it: HEK 293 cells with TK, K2-5F and p53 vectors vs TK vector only or TK plus K2-5F vector. The format is cell-based, human. The text has this: FIG. 6 is a graphical representation of regulation of the response to GCV by p53-induced K2-5F. Cells (HEK 293) were co-transfected with the following plasmids: pRL-2MDR-TKp-TK and pFR-2p21-K2-5F (Δ); pRL-2MDR-TKp-TK, pFR-2p21-K2-5F, and pCMV-P53-Myc (∇); or pRL-2MDR-TKp-TK and pcK2-5F (◯). The total DNA amount was adjusted by pcDNA3.1A and/or PRL-TK. A ratio of 1:20:1 between pRL-2MDR-TKp-TK, pFR-2p21-K2-5F, and pCMV-P53-Myc was used. (□) represents cells transfected with both control vectors. After twenty-four hours, cells in each well were replated uniformly into six-well plates, and after another twenty four hours, GCV was administered in varying concentrations. Luciferase activities were measured after four days of treatment with GCV. Results are expressed as a percentage of the luciferase activities at 0 GCV.
(§4) Cells were seeded in twelve-well plates and transfected as described above. […] After four days of treatment, cells were lysed, and luciferase activities or β-galactosidase activities were measured according to the manufacturer's protocol (Promega Corp., Madison, Wis., United States of America). Cell viability was estimated by luciferase activity or β-galactosidase activity, with results expressed as a percentage of the activity in the absence of GCV. […]

The next assay deals with Saos-2/p53+ cells. Nature of the assay: Colony-formation assay with GCV in Saos-2/p53-positive cells. The format is cell-based, human. The note with it: Saos 2/p53-positive cells co-transfected with pRL-2MDR-TKp-TK; especially at higher GCV concentrations.
Excerpt: as §1, §2, §3

The subject of a further assay is HEK 293T cells. Nature of the assay: GCV sensitivity assay (luciferase or β-galactosidase activity as cell viability) in transfected HEK 293T cells. The format is cell-based. To be noted: Homo sapiens, 96 h, four days of GCV.
Excerpt: FIG. 4 is a graphical representation of regulation of the response to GCV by constitutively expressed K2-5F. Cells (HEK 293T) were co-transfected with equal amounts of the following plasmids: pRL-2MDR-TKp-TK and pcDNA3.1A (Δ), pRL-2MDR-TKp-TK and pcK2-5F (◯), or pcDNA3.1A and PRL-TK (□). All cells were also co-transfected with a luciferase-expressing plasmid (FIG. 4A) or a β-galactosidase-expressing plasmid (FIG. 4B) as a marker. After twenty-four hours, cells in each well were re-plated evenly into six-well plates, and in another twenty four hours, GCV was administered in varying concentrations. Luciferase (FIG. 4A) or β-galactosidase (FIG. 4B) activities were measured after four days of treatment by GCV. Results are expressed as a percentage of the enzymatic activities at 0 GCV for each set of plasmids.
as §4

As to `Nc1nc(O)c2ncn(COC(CO)CO)c2n1` [GCV, ganciclovir], the “effect of K2-5F-expressing plasmid on the dose-survival curve for GCV” value is recorded as “no effect” in the assay with Saos-2/p53- cells (Saos2/p53-negative cells co-transfected with pRL-2MDR-TKp-TK, colonies after 10 days) and “substantial protective effect” in the assay with Saos-2/p53+ cells. In addition, the “concentration of GCV required to attain toxicity” value with Saos-2/p53- cells (Saos-2 cells compared with HEK 293 cells) was “higher concentration”. For the same molecule, the “right shift of the dose-response profile” value in the assay on HEK 293 cells is reported as “approximately 1 log”. The IC50 was around 10 µM with HEK 293T cells (HEK 293T cells transfected with both pRL-2MDR-TKp-TK and pcK2-5F); around 0.2 µM in the assay with HEK 293T cells (HEK 293T cells transfected with pRL-2MDR-TKp-TK alone).

One may read the IC50 as the midpoint of a concentration-inhibition curve.
